Measured values: ChEMBL document CHEMBL1157539, “Thousands of chemical starting points for antimalarial lead identification” (Nature, 2010)

Test system: Plasmodium falciparum
Assay: GSK_TCMDC: Inhibition of Plasmodium falciparum 3D7 in whole erythrocytes, using parasite LDH activity as an index of growth.
Assay type: functional, organism-based
Details: Plasmodium falciparum, 3D7

Cc1c(C(=O)Nc2cc(Sc3ccc(F)cc3)cc([N+](=O)[O-])c2)sc2ncn(Cc3cccc(F)c3)c(=O)c12
XC50: 720 nM

NCc1ccc(-c2cccc(CNC3CCN(Cc4ccccc4)CC3)c2)cc1
XC50: 672 nM

CC1CCCC(NC(=O)CCOc2ccccc2)C1 (stereo not drawn)
XC50: 882 nM

Cc1cc(-c2ccc(CNCCc3cccs3)cc2)ccc1S(=O)(=O)NCc1ccccc1
XC50: 1140 nM

O=C(NC(c1ccc(Cl)cc1)c1ccc2cccnc2c1O)c1ccccc1 (stereo not drawn)
XC50: 558 nM

COc1cc(NC(=O)c2sc(-c3ccc(Cl)cc3)cc2NC(=O)c2cccnc2)ccc1OCCN1CCCC1
XC50: 380 nM

CCCOc1c(CCNCCCCNCCc2ccc3ccccc3c2OCCC)ccc2ccccc12
XC50: 482 nM

Oc1cc(-c2cccc(C(F)(F)F)c2)nc(Nc2ccc(Cl)c(Cl)c2)n1
XC50: 759 nM

Clc1ccc2c(NCc3ccc4c(c3)OCO4)ccnc2c1
XC50: 266 nM

O=S(=O)(Nc1ccc2nccc(N3CCNCC3)c2c1)c1ccc2c(Cl)cccc2c1
XC50: 573 nM

Cc1[nH]c(C)c(-c2ccc(Nc3ccc(C(F)(F)F)cn3)cc2)c(=O)c1Br
XC50: 26 nM

Cc1ccc(Nc2nc(N/N=C/c3cccc([N+](=O)[O-])c3)nc(Nc3ccccc3)n2)c(C)c1
XC50: 626 nM

COc1ccc(NC(=O)/C=C/c2cc(Br)ccc2F)cc1OCCN(C(C)C)C(C)C
XC50: 757 nM

COc1ccc(-c2ccc(NC(=O)c3cccc(C#N)c3)cc2)cc1CN1CCN(C)CC1
XC50: 713 nM

Oc1ccc(CN2Cc3ccccc3OC3(CCN(Cc4c[nH]c5cnccc45)CC3)C2)cc1
XC50: 1170 nM

Cc1ccc2c(c1)NCC21CCN(C[C@@H](O)C2CCN(c3cc(C#N)ccn3)CC2)CC1C (stereo partly drawn)
XC50: 606 nM

Nc1c2c(nc3cc(NC(=O)c4ccc([N+](=O)[O-])cc4)ccc13)CCCC2
XC50: 475 nM

c1ccc(CN2CCN(CCNc3c4ccccc4nc4ccccc34)CC2)cc1
XC50: 876 nM

O=C(Nc1ccc(C(F)(F)F)cc1)c1cccc(S(=O)(=O)NC2CCN(Cc3ccccc3)C2)c1 (stereo not drawn)
XC50: 1050 nM

Oc1ccc(Cc2cc(Oc3c(I)cc(CCc4ncc[nH]4)cc3I)ccc2O)cc1
XC50: 712 nM

CN1CCN(C(=O)CN2CCC3(CCC2=O)NC(=O)c2ccccc2O3)CC1 (stereo not drawn)
XC50: 213 nM

CN(C)CCC=C1c2ccccc2Sc2c(O)cc(Cl)cc21
XC50: 277 nM

O=C(Nc1cccc(C2=NCCCN2)c1)Nc1cccc(C2=NCCCN2)c1
XC50: 561 nM

CNC(=O)/C=C/c1cc(NC(=O)Nc2cc(C)nc3c(F)cccc23)ccc1OC
XC50: 908 nM

Cc1ccccc1C1CCN(C2CCC(NC(=O)/C=C/c3cc(F)ccc3F)CC2)CC1 (stereo not drawn)
XC50: 1040 nM

O=C(Nc1cccc(-c2csc(-c3nc4ccccc4[nH]3)c2)c1)c1cc(=O)c2ccccc2[nH]1
XC50: 232 nM

Cc1cc(C)c(-c2n[nH]c3c2C(c2cccc(Cl)c2)N(Cc2ccco2)C3=O)c(O)c1 (stereo not drawn)
XC50: 1010 nM

Cn1ccnc1CCC(=O)Nc1ccc(Cl)cc1C(=O)Nc1ccc(Cl)cc1
XC50: 1560 nM

O=C(NC1CCN(c2ccnc3cc(Cl)ccc23)C1)c1ccc(F)cc1 (stereo not drawn)
XC50: 187 nM

COc1cc(Cc2cnc(N)nc2N)cc(OCCCCCCN)c1OC
XC50: 190 nM

COc1cc(C=Cc2ccc3ccccc3n2)cc(Br)c1OCC(=O)N(C)C
XC50: 1100 nM

CCOC(=O)NCC(=O)Nc1cccc(-c2cccc(-c3nc4cccc(C)c4[nH]3)c2)c1
XC50: 740 nM

COc1cc2c(cc1NC(=O)CN1CCN(C(=O)c3ccco3)CC1)oc1ccccc12
XC50: 422 nM

O=S(=O)(Nc1cc2c(cc1OCCCN1CCCCC1)CCNCC2)c1ccc(-c2ccc(Cl)cc2)cc1
XC50: 1000 nM

CN(CCCc1c[nH]c2ccccc12)CC1CCN(C(=O)/C=C/c2ccc(Cl)c(Cl)c2)CC1
XC50: 747 nM

O=C(/C=C/c1ccc(Cl)c(Cl)c1)N1CCC(CN2CCC(c3c[nH]c4ccccc34)C(O)C2)CC1 (stereo not drawn)
XC50: 809 nM

COc1ccc(-c2ccc(NC(=O)c3cccc(Cl)c3)cc2)cc1CN1CCCC1
XC50: 705 nM

c1ccc2c(c1)ncc1c3ccccc3[nH]c21
XC50: 866 nM

COc1ccc2nccc(N/N=C/c3ccccc3[N+](=O)[O-])c2c1
XC50: 65.9 nM

CC1CCN(c2nc(C(=O)Nc3ccc(F)cc3C(F)(F)F)c(C(C)C)s2)CC1
XC50: 229 nM

CC(=O)Nc1ccc(C(=O)Nc2cccc(-c3ccc(-c4nc5ccccc5[nH]4)cc3)c2)cn1
XC50: 206 nM

CC1(C)NC(N)=NC(=N)N1OCOc1cc(Cl)c(Cl)cc1Cl
XC50: 3.2 nM

CC(C)(C)CC(C)(C)c1ccc(O)c(C(=O)Nc2cccc([N+](=O)[O-])c2)c1
XC50: 589 nM

COc1ccc(C2CCN(CCCCNC(=O)c3ccc(NC(=O)c4ccc(Cl)cc4)cc3)C2)c(OC)c1 (stereo not drawn)
XC50: 1200 nM

CC(=O)c1ccc2c(c1)CCN(CCC1CCC(NC(=O)c3cc4ccccc4[nH]3)CC1)CC2 (stereo not drawn)
XC50: 982 nM

Fc1cc(CN2CCCC2)ccc1OCCCN1CCN(c2cccc(Cl)c2Cl)CC1
XC50: 1040 nM

CS(=O)(=O)c1cccc(-c2cnc(N)c3cc(-c4cccc(F)c4)ccc23)c1
XC50: 860 nM

Cc1nc(C)c(-c2ccc(-c3ccc(F)cc3)cc2)c(O)c1Cl
XC50: 655 nM
